Reference: paper PMC2668518 (Bioconjugate chemistry, 2009)

experiment: Biodistribution of radiolabeled closo-borate; assay type: in vivo, Male athymic mice (nu/nu); details: mice, 1 and 4 h pi

tissue(s) with the highest concentration of radionuclide | Substance
kidney | [Et3NH]2B12H10At-CONHpropyl [[^211At]2c]
kidney | [Et3NH]2B12H10I-CONHpropyl [[^125I]2b]

The next lines start with the substance.

Substance | tissue(s) with the highest concentration of radionuclide
[Et3NH]2B10H8I-CONHpropyl [[^125I]1e] | kidney
[nBu4N]2B10H8At-CONHpropyl [[^211At]1c] | liver and intestines
[nBu4N]2B10H8I-CONHpropyl [[^125I]1b] | liver and intestines

same assay, conditions: mice, 1 h pi, urine at sacrifice

concentration in urine | Substance
320 ± 135 %ID/g | [Et3NH]2B10H8I-CONHpropyl [[^125I]1e]
33.11 ± 14.06 %ID/g | [nBu4N]2B10H8At-CONHpropyl [[^211At]1c]
174.43 ± 90.33 %ID/g | [nBu4N]2B10H8I-CONHpropyl [[^125I]1b]

same assay, conditions: mice, inferred from tissue distribution at 1 and 4 h pi

route of excretion | Substance
kidney | [Et3NH]2B12H10At-CONHpropyl [[^211At]2c]
kidney | [Et3NH]2B12H10I-CONHpropyl [[^125I]2b]

Continued, substance first:

Substance | route of excretion
[Et3NH]2B10H8I-CONHpropyl [[^125I]1e] | renal clearance
[nBu4N]2B10H8I-CONHpropyl [[^125I]1b] | hepatobiliary rather than renal

same assay, conditions: mice, injected via lateral tail vein, 1 h post injection

concentration in kidney | Substance
6.6 %ID/g | [Et3NH]2B10H8I-CONHpropyl [[^125I]1e]
19.8 %ID/g | [Et3NH]2B12H10I-CONHpropyl [[^125I]2b]

same assay, conditions: mice, injected via lateral tail vein, 4 h post injection

concentration in kidney | Substance
0.27 %ID/g | [Et3NH]2B10H8I-CONHpropyl [[^125I]1e]
26.5 %ID/g | [Et3NH]2B12H10I-CONHpropyl [[^125I]2b]
